System: Magnaporthe grisea (Pyricularia oryzae—PYRIOR)
Assay: microbe, parasite or virus in culture
Assay type: cell-based
Details: Pyricularia oryzae, read-out: PYRIOR in vitro Growth Inhibition

SMILES	inhibition at 25 ppm
COc1ccnc(C(=O)Nc2ccc(Oc3ccc(C(F)(F)F)cc3)nc2)c1O [Compound 472]	> 80%
COc1ccnc(C(=O)NC(C)c2ccc(C(F)(F)F)cc2)c1O (centres unmarked) [Compound 247]	< 80%
COc1ccnc(C(=O)NCC2COCCOCCOCCOCCO2)c1O (centres unmarked) [Compound 245]	< 80%
CO/N=C(/c1ccc(NC(=O)c2nccc(OC)c2O)cc1)c1ccc(C(F)(F)F)cc1 [Compound 409]	> 80%

System: Rhizoctonia solani (RHIZSO)
Assay: microbe, parasite or virus in culture
Assay type: cell-based
Details: Rhizoctonia solani, read-out: RHIZSO in vitro Growth Inhibition

SMILES	inhibition at 25 ppm
COc1ccnc(C(=O)Nc2ccc(Oc3ccc(C(F)(F)F)cc3)nc2)c1O [Compound 472]	< 80%
COc1ccnc(C(=O)NC(C)c2ccc(C(F)(F)F)cc2)c1O (centres unmarked) [Compound 247]	< 80%
COc1ccnc(C(=O)NCC2COCCOCCOCCOCCO2)c1O (centres unmarked) [Compound 245]	< 80%
CO/N=C(/c1ccc(NC(=O)c2nccc(OC)c2O)cc1)c1ccc(C(F)(F)F)cc1 [Compound 409]	< 80%

System: Mycosphaerella graminicola (Septoria tritici—SEPTTR)
Assay: In vitro fungal growth inhibition, Mycosphaerella graminicola (SEPTTR)
Assay type: cell-based
Details: Zymoseptoria tritici; 25 ppm in growth medium; read-out: SEPTTR in vitro Growth Inhibition

SMILES	inhibition at 25 ppm
COc1ccnc(C(=O)NC(C)c2ccc(C(F)(F)F)cc2)c1O (centres unmarked) [Compound 247]	> 80%
COc1ccnc(C(=O)NCC2COCCOCCOCCOCCO2)c1O (centres unmarked) [Compound 245]	< 80%
CO/N=C(/c1ccc(NC(=O)c2nccc(OC)c2O)cc1)c1ccc(C(F)(F)F)cc1 [Compound 409]	> 80%

Same assay, conditions: Zymoseptoria tritici; 25 ppm in the growth medium; read-out: SEPTTR in vitro Growth Inhibition

SMILES	inhibition at 25 ppm
COc1ccnc(C(=O)Nc2ccc(Oc3ccc(C(F)(F)F)cc3)nc2)c1O [Compound 472]	< 80%

System: Stagonospora nodorum (Leptosphaeria nodorum—LEPTNO)
Assay: In vitro fungal growth inhibition, Stagonospora nodorum (LEPTNO)
Assay type: cell-based
Details: Leptosphaeria; 25 ppm in growth medium; read-out: LEPTNO in vitro Growth Inhibition

SMILES	inhibition at 25 ppm
COc1ccnc(C(=O)NC(C)c2ccc(C(F)(F)F)cc2)c1O (centres unmarked) [Compound 247]	> 80%
COc1ccnc(C(=O)NCC2COCCOCCOCCOCCO2)c1O (centres unmarked) [Compound 245]	< 80%
CO/N=C(/c1ccc(NC(=O)c2nccc(OC)c2O)cc1)c1ccc(C(F)(F)F)cc1 [Compound 409]	> 80%

Same assay, conditions: Leptosphaeria; 25 ppm in the growth medium; read-out: LEPTNO in vitro Growth Inhibition

SMILES	inhibition at 25 ppm
COc1ccnc(C(=O)Nc2ccc(Oc3ccc(C(F)(F)F)cc3)nc2)c1O [Compound 472]	< 80%

System: Ustilago maydis (USTIMA)
Assay: microbe, parasite or virus in culture
Assay type: cell-based
Details: Mycosarcoma maydis, read-out: USTIMA in vitro Growth Inhibition

SMILES	inhibition at 25 ppm
COc1ccnc(C(=O)Nc2ccc(Oc3ccc(C(F)(F)F)cc3)nc2)c1O [Compound 472]	< 80%
COc1ccnc(C(=O)NC(C)c2ccc(C(F)(F)F)cc2)c1O (centres unmarked) [Compound 247]	< 80%
COc1ccnc(C(=O)NCC2COCCOCCOCCOCCO2)c1O (centres unmarked) [Compound 245]	< 80%
CO/N=C(/c1ccc(NC(=O)c2nccc(OC)c2O)cc1)c1ccc(C(F)(F)F)cc1 [Compound 409]	< 80%

System: Phytophthora infestans (PHYTIN)
Assay: microbe, parasite or virus in culture
Assay type: cell-based
Details: Phytophthora infestans, read-out: PHYTIN in vitro Growth Inhibition

SMILES	inhibition at 25 ppm
COc1ccnc(C(=O)Nc2ccc(Oc3ccc(C(F)(F)F)cc3)nc2)c1O [Compound 472]	< 80%
COc1ccnc(C(=O)NC(C)c2ccc(C(F)(F)F)cc2)c1O (centres unmarked) [Compound 247]	< 80%
COc1ccnc(C(=O)NCC2COCCOCCOCCOCCO2)c1O (centres unmarked) [Compound 245]	< 80%
CO/N=C(/c1ccc(NC(=O)c2nccc(OC)c2O)cc1)c1ccc(C(F)(F)F)cc1 [Compound 409]	> 80%

System: Phytophthora infestans—PHYTIN
Assay: whole plant or invertebrate
Assay type: in vivo
Details: Phytophthora, in Solanum lycopersicum, 24 h, read-out: PHYTIN in vivo 1 Day Protectant

SMILES	pest or weed control at 100 ppm
COc1ccnc(C(=O)Nc2ccc(Oc3ccc(C(F)(F)F)cc3)nc2)c1O [Compound 472]	< 25%
COc1ccnc(C(=O)NC(C)c2ccc(C(F)(F)F)cc2)c1O (centres unmarked) [Compound 247]	< 25%
COc1ccnc(C(=O)NCC2COCCOCCOCCOCCO2)c1O (centres unmarked) [Compound 245]	< 25%
CO/N=C(/c1ccc(NC(=O)c2nccc(OC)c2O)cc1)c1ccc(C(F)(F)F)cc1 [Compound 409]	25 to 74%

System: Puccinia recondita—PUCCRT
Assay: Brown Rust of Wheat, in vivo whole plant, 24 Hour Protectant
Details: Puccinia; 100 ppm spray, 24 hour protectant, wheat; control of fungal infection vs untreated plants; read-out: PUCCRT in vivo 1 Day Protectant

SMILES	pest or weed control at 100 ppm
COc1ccnc(C(=O)NC(C)c2ccc(C(F)(F)F)cc2)c1O (centres unmarked) [Compound 247]	< 25%
COc1ccnc(C(=O)NCC2COCCOCCOCCOCCO2)c1O (centres unmarked) [Compound 245]	< 25%

Same assay, conditions: Puccinia; 100 ppm spray, wheat, 24 hour protectant; control of fungal infection vs untreated plants; read-out: PUCCRT in vivo 1 Day Protectant

SMILES	pest or weed control at 100 ppm
CO/N=C(/c1ccc(NC(=O)c2nccc(OC)c2O)cc1)c1ccc(C(F)(F)F)cc1 [Compound 409]	25 to 74%

Same assay, conditions: Puccinia; wheat plants sprayed at 100 ppm, inoculated after 24 hours; control of fungal infection vs untreated plants; read-out: PUCCRT in vivo 1 Day Protectant

SMILES	pest or weed control at 100 ppm
COc1ccnc(C(=O)Nc2ccc(Oc3ccc(C(F)(F)F)cc3)nc2)c1O [Compound 472]	25 to 74%

System: Erysiphe graminis—ERYSGT
Assay: Powdery Mildew of Wheat, in vivo whole plant, 24 Hour Protectant
Details: Erysiphe; 100 ppm spray, 24 hour protectant, wheat; control of fungal infection vs untreated plants; read-out: ERYSGT in vivo 1 Day Protectant

SMILES	pest or weed control at 100 ppm
COc1ccnc(C(=O)NC(C)c2ccc(C(F)(F)F)cc2)c1O (centres unmarked) [Compound 247]	< 25%
COc1ccnc(C(=O)NCC2COCCOCCOCCOCCO2)c1O (centres unmarked) [Compound 245]	< 25%

Same assay, conditions: Erysiphe; 100 ppm spray, wheat, 24 hour protectant; control of fungal infection vs untreated plants; read-out: ERYSGT in vivo 1 Day Protectant

SMILES	pest or weed control at 100 ppm
CO/N=C(/c1ccc(NC(=O)c2nccc(OC)c2O)cc1)c1ccc(C(F)(F)F)cc1 [Compound 409]	25 to 74%

Same assay, conditions: Erysiphe; wheat plants sprayed at 100 ppm, inoculated after 24 hours; control of fungal infection vs untreated plants; read-out: ERYSGT in vivo 1 Day Protectant

SMILES	pest or weed control at 100 ppm
COc1ccnc(C(=O)Nc2ccc(Oc3ccc(C(F)(F)F)cc3)nc2)c1O [Compound 472]	< 25%

System: Septoria tritici—SEPTTR
Assay: Leaf Blotch of Wheat, in vivo whole plant, 24 Hour Protectant
Details: Zymoseptoria tritici, 24 h, 100 ppm spray, 24 hour protectant, wheat; control of fungal infection vs untreated plants; read-out: SEPTTR in vivo 1 Day Protectant

SMILES	pest or weed control at 100 ppm
COc1ccnc(C(=O)NC(C)c2ccc(C(F)(F)F)cc2)c1O (centres unmarked) [Compound 247]	25 to 74%
COc1ccnc(C(=O)NCC2COCCOCCOCCOCCO2)c1O (centres unmarked) [Compound 245]	25 to 74%

Same assay, conditions: Zymoseptoria tritici, 24 h, 100 ppm spray, wheat, 24 hour protectant; control of fungal infection vs untreated plants; read-out: SEPTTR in vivo 1 Day Protectant

SMILES	pest or weed control at 100 ppm
CO/N=C(/c1ccc(NC(=O)c2nccc(OC)c2O)cc1)c1ccc(C(F)(F)F)cc1 [Compound 409]	25 to 74%

Same assay, conditions: Zymoseptoria tritici, 24 h, wheat plants sprayed at 100 ppm, inoculated after 24 hours; control of fungal infection vs untreated plants; read-out: SEPTTR in vivo 1 Day Protectant

SMILES	pest or weed control at 100 ppm
COc1ccnc(C(=O)Nc2ccc(Oc3ccc(C(F)(F)F)cc3)nc2)c1O [Compound 472]	25 to 74%

System: Leptosphaeria nodorum—LEPTNO
Assay: Glume Blotch of Wheat, in vivo whole plant, 24 Hour Protectant
Details: 100 ppm spray, wheat, 24 hour protectant; control of fungal infection vs untreated plants

SMILES	LEPTNO in vivo 1 Day Protectant
CO/N=C(/c1ccc(NC(=O)c2nccc(OC)c2O)cc1)c1ccc(C(F)(F)F)cc1 [Compound 409]	+ +

Same assay, conditions: Leptosphaeria; 100 ppm spray, 24 hour protectant, wheat; control of fungal infection vs untreated plants; read-out: LEPTNO in vivo 1 Day Protectant

SMILES	pest or weed control at 100 ppm
COc1ccnc(C(=O)NC(C)c2ccc(C(F)(F)F)cc2)c1O (centres unmarked) [Compound 247]	25 to 74%
COc1ccnc(C(=O)NCC2COCCOCCOCCOCCO2)c1O (centres unmarked) [Compound 245]	25 to 74%

Same assay, conditions: Leptosphaeria; wheat plants sprayed at 100 ppm, inoculated after 24 hours; control of fungal infection vs untreated plants; read-out: LEPTNO in vivo 1 Day Protectant

SMILES	pest or weed control at 100 ppm
COc1ccnc(C(=O)Nc2ccc(Oc3ccc(C(F)(F)F)cc3)nc2)c1O [Compound 472]	25 to 74%
